Values joined by “and” are separate entries in the source; they are usually repeats but may differ in a detail not shown here. Equal entries are not always repeated. “Also recorded” adds a separate entry of the source. Square brackets hold non-standard residues; d marks the D form. Ends that are not written are not given here. * marks the point of attachment. Agmatine = N=C(N)NCCCCN*; Nle = CCCC[C@H](N)C(=O)O; Orn = NCCC[C@H](N)C(=O)O; Abu = CC[C@H](N)C(=O)O

The source of these data is patent US8980249B2, “Agonists of growth hormone releasing hormone as effectors for survival and proliferation of pancreatic islets” (University of Miami, priority 2010, dated 2015).

Assay [1] relates to myocardial infarction (MI). Conditions: in vivo; cited from earlier work.
Assay [2] has as its system INS-1 cells. The assay can be described thus: Cell proliferation of INS-1 insulinoma cells. Format: cell-based, rat. On the procedure: (§1) Rat insulinoma cells (INS-1) were cultured in RPMI 1640 medium (PAA, Pasching, Austria) supplemented with 2 mM L-glutamine, 10% fetal bovine serum (FBS), 1 mM Na-pyruvate, 50 μM 2-mercaptoethanol and 100 U/ml penicillin-streptomycin (Gibco, Gaithersburg Md.) in a humidified 5% CO2/[…] atmosphere at 37° C. The culture medium was changed every other day. Cells were grown for 72 hrs prior to experimentation. GHRH agonist JI-36 (10^−6-10^−9 M) and GHRH antagonist MIA-602 ([…]) were used for 24-96 hrs, respectively.
(§2) INS-1 cells were grown for 72 hrs prior to experimentation; islets were collected immediately after the isolation procedure and each were divided into three treatment groups: (1) Culture media with vehicle (DMSO) served as control group, (2) Culture media containing GHRH agonist JI-36 (10^−6 M), (3) culture media with JI-36 plus GHRH antagonist MIA-602 (10^−6 M). Media change and addition of the analogues was performed after 24 hrs and 48 hrs in islet cultures and every other day in INS-1 cell cultures.

In assay [3] the test system is INS-1 cells. The assay can be described thus: Cell apoptosis of INS-1 cells (activity of caspases 3 and 7). Format: cell-based, rat. Here is the method: as §1, §2
Assay [4] relates to INS-1 cells. Description: Ultrastructural analysis of INS-1 cells. The class given is cell-based, rat. The conditions noted are these: JI-36 10^−6 M. On the procedure: as §2
Assay [5] concerns isolated rat islets. Description: Islet particle number and islet size (islet equivalents) in culture. The class given is cell-based. The conditions noted are these: rat islets in culture with JI-36 10^−6 M. Here is the method:
Pancreatic islets were isolated from male Wistar rats according to guidelines established by the University of Dresden Institutional Animal Care and Use Committee. Animals were anesthetized by 3% isoflurane; digestion solution (Collagenase V, Sigma-Aldrich, St. Louis, Mo.) was injected in situ via the pancreatic common bile duct. Islets were purified by centrifugation on a discontinuous Ficoll gradient (Mediatech). Purified islets were maintained in culture media (CMRL 1066, Mediatech, USA) supplemented with 10% FBS at 37° C. in a 5% CO2 incubator. Volume and purity were determined by microscopic sizing after staining with dithizone (Sigma-Aldrich, St. Louis, Mo.).
Triplicate samples of 100 to 300 islet particles were stained with dithizone (Sigma-Aldrich, St. Louis, Mo.), which binds zinc ions present specifically in islet β-cells, and sized using an eyepiece reticle and inverted microscope (32). The term islet particle describes an individual islet independent of its size. All islet particles with a diameter >50 μm were divided into classes of 50 μm increments (i.e., 50-100, 100-150, 150-200, etc.) for calculation of islet equivalents (IEQ). Each diameter class was converted into the mean volume of 150-μm diameter islets by a relative conversion factor. These factors allow converting the total islet particle number from any preparation into IEQ. […]

For assay [6], the system named is isolated rat islets. Description: Immunostaining of islets for insulin and Ki-67. Format: cell-based. Conditions: 72 hrs in culture with JI-36.
The subject of assay [7] is rat islets. Description: Islet membrane integrity, FDA/PI viability staining. Format: cell-based. The conditions noted are these: 72 hrs in culture, n=4. Here is the method: Small aliquots of islets were transferred in phosphate-buffered saline (PBS) containing Petri dishes. Fluorescein diacetate (FDA) and propidium iodide (PI) were added to the samples at a final concentration of 0.5 and 75 μM, respectively. Using a fluorescence microscope, 100 islets were assessed for cell viability by estimating the percentage of viable cells (green) versus percentage of non-viable cells (red) within each islet. The percentage of viable cells was then calculated (33).

For assay [8], the system named is rat islets. The assay can be described thus: Static glucose-stimulated insulin secretion. Format: cell-based. On the procedure:
For static insulin secretion in response to glucose challenge, islets were transferred into Petri dishes containing oxygenated Krebs-Ringer bicarbonate buffer (KRB, 137 mM NaCl, 4.7 mM KCl, 1.2 mM KH2PO4, 1.2 mM MgSO4-7H2O, 2.5 mM CaCl2-2H2O, 25 mM NaHCO3, 0.25% BSA) and pre-incubated in 3.3 mM glucose at 37° C. (5% CO2) for 30 min. Groups of 8-10 islets from the equilibration cultures were transferred to fresh oxygen-saturated media containing either 3.3 or 16.7 mM glucose and then incubated an additional 60 min in a 37° C. water bath with gentle shaking. Secreted insulin in the media was measured by ELISA (Millipore, Billerica, Mass.) and values normalized to extracted islet DNA (Quant-iT™ Picogreen, Invitrogen).

Assay [9] relates to streptozotocin-induced diabetic NOD-SCID mice. The assay can be described thus: Transplantation of pretreated rat islets beneath the kidney capsule of diabetic mice. The class given is in vivo. On the procedure:
NOD-SCID mice (MTZ breed) with induced diabetes were used as islet recipients following guidelines established by the University of Dresden Institutional Animal Care and Use Committee. Diabetes was induced by a single intraperitoneal injection of 180 mg/kg streptozotocin (Sigma-Aldrich, St. Louis, Mo.). Serum glucose was then measured daily using an Ascensia Elite glucometer (Bayer, Burr Ridge, Ill.). Mice were considered diabetic if non-fasting blood glucose (BG) was >350 mg/dL for two or more consecutive days. Rat islet preparations were used for transplantation. Islets from each preparation were divided into two groups, and JI-36 (10^−6 M) or vehicle (DMSO) was added to the culture media. Islets were cultured for 48 hrs prior to transplantation. After culture, samples of 300 IEQ were washed in transplant media (Ringer acetate with 5% glucose and 10% FBS), and transplanted to beneath the left kidney capsule. The animal experiments and housing were in accordance with institutional guidelines and German animal regulations.
The non-fasting blood glucose levels were measured daily during the first week and twice a week thereafter. On day 25, mice were subjected to an intraperitoneal glucose tolerance test (IPGTT). Two days later, grafts were removed. This led to a recurrence of the diabetic state. This proves that restoration and maintenance of normoglycemia was due to islet graft function.
On follow-up, sustained non-fasting blood glucose levels of ≦10 mM (≦180 mg/dl) were defined as “cure”, 10 to 18 mM (180 to 320 mg/dl) as “partial function” of transplanted islets, and levels above 18 mM (>320 mg/dl) as “graft failure”.

Assay [10] has the same test system. Description: Intraperitoneal glucose tolerance test after islet transplantation. The class given is in vivo. On the procedure:
Mice were fasted overnight (at least 6 hrs) before examination. A glucose solution was given at 3 g/kg BW i.p. and blood glucose was recorded before injection and 15, 30, 45, 60, 90 and 120 min following glucose injection. Non-transplanted mice were used as controls and tested concurrently.

A further assay has as its system cardiomyocytes. Conditions: in vitro; cited from earlier work.
Another assay has as its system rat hearts. Conditions: cited from earlier work.

With “(Dat^1, Gln^8, Orn^12,21, Abu^15, Nle^27, Asp^28, Agm^29)hGH-RH(1-29) [JI-38]”, the “cardiac effect following myocardial infarction” value in assay [1] is listed as “favorable cardiac effect, attenuating infarct size”.

As to “(Dat^1, Thr^8, Orn^12,21, Abu^15, Nle^27, Asp^28, Agm^29)hGH-RH(1-29) ([Dat]ADAIFTTSYR[Orn]VL[Abu]QLSAR[Orn]LLQDI[Nle]D[Agmatine]) [JI-36, synthetic GHRH agonist]”, the “cell proliferation rates (in words)” value with INS-1 cells [2] (10^−6-10^−9 M, 24-96 hrs) was “significant and dose-dependent increase”. The “increase in cell proliferation compared to control” value in the assay on INS-1 cells [2] (JI-36 10^−6 M, 72 hrs) stood at 50%. Moreover, the “most effective concentration for cell proliferation” value with INS-1 cells [2] (tested 10^−6-10^−9 M) is 10^−6 M. For the same substance, the “degree of cell apoptosis (in words)” value in the assay with INS-1 cells [3] (10^−6-10^−9 M, 24-96 hrs, INS-1 cells) was “significant decrease; also recorded: reduction”. In the assay on INS-1 cells [3] (JI-36 10^−6 M, 72 hrs, INS-1 cells), the “reduction of apoptosis (activity of caspases 3 and 7)” value was found to be 20%. Also, the “time of maximal anti-apoptotic effect” value in the assay on INS-1 cells [3] (incubation 24-96 hrs) was determined as 72 h. Further, in the assay with INS-1 cells [3] (tested 10^−6-10^−9 M, INS-1 cells), the “most effective concentration for anti-apoptotic effect” value was 10^−6 M. In addition, the “ultrastructural changes / metabolic state” value in the assay with INS-1 cells [4] was “more active metabolic state; also recorded: metabolic active stimulation state with increased cytoplasm”. The “islet equivalents (IEQ/IP ratio, islet size) versus control” value with isolated rat islets [5] (24-72 hrs) is “increased islet size”. Moreover, the “number of islet particles over time versus control” value with isolated rat islets [5] (up to 72 hrs) is “no relevant change; also recorded: no difference between treatment group and control”. In the assay with isolated rat islets [6], the “insulin and Ki-67 staining (proliferation in beta cells)” value is “co-localization of the two markers”. The substance further yielded an islet viability in the assay on rat islets [7] of 96±3.3%. For the same substance, the “insulin release at basal glucose versus control (in words)” value in the assay with rat islets [8] (3.3 mM glucose) is reported as “slight increase; also recorded: did not cause a relevant difference”. The “insulin release at basal glucose” value in the assay on rat islets [8] (3.3 mM glucose, 1 hr, after 48 hrs exposure, n=5) came out at 2.3 ± 0.5 ng/mL. Further, the “insulin release upon glucose stimulation compared to control (in words)” value in the assay with rat islets [8] (16.7 mM glucose) is listed as “more than double; also recorded: increased”. Besides, the “insulin release at high glucose” value in the assay with rat islets [8] (16.7 mM glucose, after 48 hrs exposure, n=5) worked out at 8.2 ± 0.2 ng/mL. For the same substance, in the assay on rat islets [8] (16.7 mM vs 3.3 mM glucose), the “insulin release at high glucose relative to basal glucose” value is listed as 3.6 fold. Also, the “animals cured (stable normoglycemia)” value in [9] (300 IEQ islets pretreated with JI-36 10^−6 M 48 hrs, day 25) was 5 of 6 and 5 out of 6. Moreover, the “graft integration (insulin immunostaining)” value in assay [9] (day 27 after transplantation) is “stable graft integration”. Further, the “blood glucose control after transplantation versus untreated islets (in words)” value in assay [9] (islets pretreated with JI-36) was “consistently performed better; also recorded: rapid and persistent recovery from diabetes; also recorded: earlier and more consistently”. Moreover, the “animals with partial graft function” value in assay [9] (islets pretreated with JI-36, day 25) was “one”. The “time to revert initial hyperglycemia to normal ranges in IPGTT” value in assay [10] (day 25) is at most 2 h. Also, the “response in IPGTT” value in [10] (day 25, glucose 3 g/kg i.p.) is on record as “comparable to that of normal healthy mice”.

As to “rat GHRH: rat growth hormone-releasing hormone, cited cardioprotection study (HADAIFTSSYRRILGQLYARKLLHEIMNRQQGERNQEQRSRFN; Somatoliberin; UniProt P09916 31-73, looked up)”, the survival of cardiomyocytes result in the assay on cardiomyocytes is “promoted survival”. Moreover, in the assay with rat hearts, the “protection from ischemia-reperfusion injury” value is reported as “protected”.
